Results taken from the supplement of paper PMC8882468.

Assays:
Assay in all cases: CTG-3D luminescence at 96 h relative to day-0 seeding control (ratio to day 0); higher = more growth / less cytotoxicity; PDxO 3D drug screen, 96 h, CTG-3D normalised to day-0 seeding control.
[1] = test system: HCI-011.E2 (organoid from an ER-positive breast cancer xenograft)
[2] = test system: MDA-MB-231
[3] = test system: HCI-015 (organoid from a triple-negative breast cancer xenograft)
[4] = test system: HCI-023 (organoid from a triple-negative breast cancer xenograft)
[5] = test system: HCI-002 (organoid from a triple-negative breast cancer xenograft)

CC(=O)O[C@H]1C(=O)[C@@]2(C)[C@H]([C@H](OC(=O)c3ccccc3)[C@]3(O)C[C@H](OC(=O)[C@H](O)[C@@H](NC(=O)c4ccccc4)c4ccccc4)C(C)=C1C3(C)C)[C@]1(OC(C)=O)CO[C@@H]1C[C@@H]2O [paclitaxel]
CTG-3D luminescence at 96 h
Details	12.5 pM	0.00025 µM	0.005 µM	0.1 µM	1 µM	10 µM	100 µM	625 fM
[1]	1.3	1.33	1.09	1.41	1.34	1.77	1.8	1.52
[2]	3.73	3.45	2.71	2.03	2	2.42	1.09	3.85

CTG-3D luminescence at 96 h
Details	12.5 pM	0.00025 µM	0.005 µM	0.1 µM	1 µM	10 µM	100 µM	625 fM
[1], days in culture: 74	2.01	2.21	1.82	1.95	1.91	2.73	1.85	2.25
[3], days in culture: 172	1.71	0.614	1.22	0.629	0.689	0.702	0.612	1.2
[3], days in culture: 191	1.87	1.47	1.01	0.626	0.566	0.463	0.334	1.82
[3], days in culture: 218	1.85	1.53	0.801	0.428	0.505	0.46	0.39	1.86
[4], days in culture: 111	1.34	1.27	0.476	0.484	0.433	0.474	0.492	1.58
[4], days in culture: 128	1.36	1.38	0.502	0.609	0.483	0.786	0.605	1.41
[5], days in culture: 62	2.36	2.52	1.34	0.186	0.146	0.236	0.316	2.73
[5], days in culture: 82	3.27	3.2	0.859	0.217	0.193	0.224	0.174	2.8
[5], days in culture: 91	3.82	3.68	1.54	0.26	0.19	0.258	0.36	4.44
[5], days in culture: 191	2.76	2.96	1.17	0.23	0.192	0.252	0.474	2.61
[5], days in culture: 209	2.24	2.21	1.2	0.194	0.195	0.158	0.174	2.26
[5], days in culture: 227	5	5.22	3	0.418	0.279	0.365	0.464	5

C[C@]12CC[C@@H]3c4ccc(O)cc4C[C@@H](CCCCCCCCC[S+]([O-])CCCC(F)(F)C(F)(F)F)[C@H]3[C@@H]1CC[C@@H]2O (stereo not given in full) [fulvestrant]
CTG-3D luminescence at 96 h
Details	12.5 pM	0.00025 µM	0.005 µM	0.1 µM	1 µM	10 µM	100 µM	625 fM
[1]	1.73	1.6	1.24	1.51	1.37	1.82	1.73	1.62
[2]	4.61	4.53	4.7	4.58	4.8	4.81	5.18	4.69

CTG-3D luminescence at 96 h
Details	12.5 pM	0.00025 µM	0.005 µM	0.1 µM	1 µM	10 µM	100 µM	625 fM
[1], days in culture: 74	2.77	2.62	1.87	2.1	2.1	2.2	2.02	2.9
[3], days in culture: 172	2.41	1.73	2.32	0.904	2.25	1.34	1.39	3.06
[3], days in culture: 191	1.78	1.35	1.29	1.06	1.56	1.23	1.35	1.56
[3], days in culture: 218	2.19	1.3	2.13	1.72	1.77	2.1	1.76	2.24
[4], days in culture: 111	1.5	1.45	1.4	1.27	0.963	1.24	0.911	1.61
[4], days in culture: 128	1.83	1.54	1.6	2.08	1.33	1.56	1.11	1.75
[5], days in culture: 62	2.97	2.65	3.14	2.57	2.65	3.11	2.61	2.86
[5], days in culture: 82	2.97	2.85	2.4	2.79	2.79	2.61	2.5	2.6
[5], days in culture: 91	3.59	3.05	2.86	3.23	2.74	3.39	2.65	3.54
[5], days in culture: 191	2.73	3.1	2.93	2.95	3.38	2.54	2.67	2.7
[5], days in culture: 209	2.15	2.27	2.46	2.23	2.28	1.83	2.35	2.47
[5], days in culture: 227	5.09	4.65	4.95	5.59	4.77	5	4.58	5.27

O=C(c1ccc(F)c(F)c1Nc1ccc(I)cc1F)N1CC(O)([C@@H]2CCCCN2)C1 [cobimetinib]
CTG-3D luminescence at 96 h
Details	12.5 pM	0.00025 µM	0.005 µM	0.1 µM	1 µM	10 µM	100 µM	625 fM
[1]	1.67	1.69	1.54	1.81	1.6	1.58	0.00136	1.85
[2]	4.37	4.46	4.46	3.88	2.4	1.24	-0.00771	4.43

CTG-3D luminescence at 96 h
Details	12.5 pM	0.00025 µM	0.005 µM	0.1 µM	1 µM	10 µM	100 µM	625 fM
[1], days in culture: 74	2.68	2.66	2.33	1.91	1.8	2.39	0.00131	2.55
[3], days in culture: 172	2.36	1.69	2.13	1.86	1.47	0.989	0.00672	2.48
[3], days in culture: 191	1.86	1.15	1.57	1.17	1.01	0.894	0.0092	1.58
[3], days in culture: 218	1.8	1.31	2.02	1.47	1.39	1.12	0.00858	1.64
[4], days in culture: 111	1.18	1.25	1.15	1.13	0.75	0.349	-0.00131	1.06
[4], days in culture: 128	1.67	1.44	1.83	1.63	0.769	0.338	-0.000598	1.65
[5], days in culture: 62	2.96	2.54	2.87	1.97	1.32	0.777	-0.0104	3.02
[5], days in culture: 82	3.18	3.07	2.39	1.88	1.72	0.519	-0.0137	3.03
[5], days in culture: 91	3.83	3.46	2.9	2.74	1.55	0.722	-0.0112	3.97
[5], days in culture: 191	2.68	2.52	2.54	1.88	1.67	0.799	-0.00417	2.65
[5], days in culture: 209	2.44	2.32	2.11	1.78	1.43	0.589	-0.00565	2.4
[5], days in culture: 227	5.23	5.25	4.79	4.53	2.78	1.04	-0.0104	5.77

CCN(c1cc(C#CCN2CCOCC2)cc(C(=O)NCc2c(C)cc(C)[nH]c2=O)c1C)[C@H]1CC[C@H](N(C)CCOC)CC1
CTG-3D luminescence at 96 h
Details	12.5 pM	0.00025 µM	0.005 µM	0.1 µM	1 µM	10 µM	100 µM	625 fM
[1]	1.4	1.39	1.48	1.74	1.74	2.09	2.03	1.63
[2]	4.49	4.37	4.44	4.29	4.31	4.37	4.39	4.51

CTG-3D luminescence at 96 h
Details	12.5 pM	0.00025 µM	0.005 µM	0.1 µM	1 µM	10 µM	100 µM	625 fM
[1], days in culture: 74	1.76	2.24	2.14	1.77	1.99	3.31	2.8	1.61
[3], days in culture: 172	2.25	1.77	2.86	1.78	2.2	1.94	1.91	2.23
[3], days in culture: 191	2.6	1.59	1.92	1.44	2.09	1.44	1.13	1.91
[3], days in culture: 218	1.78	1.4	2	1.49	1.67	2.02	0.907	2.07
[4], days in culture: 111	1.69	1.38	1.47	1.39	1.14	1.42	0.673	2.1
[4], days in culture: 128	1.51	1.63	1.57	1.99	1.77	2.02	1.09	1.5
[5], days in culture: 62	3.56	3.06	4.04	3.68	3.25	3.56	3.84	3.54
[5], days in culture: 82	3.83	3.88	2.98	3.77	3.86	3.46	2.82	3.6
[5], days in culture: 91	3.18	2.62	2.38	2.44	2.39	2.58	2.11	3.17
[5], days in culture: 191	3.6	3.27	3.28	3.84	3.37	3.62	3.54	3.51
[5], days in culture: 209	2.93	3.11	2.59	2.63	2.93	2.64	2.79	2.8
[5], days in culture: 227	4.96	4.84	4.63	5.11	4.67	5.77	4.2	5.52

CC1(C)CCC(c2ccc(Cl)cc2)=C(CN2CCN(c3ccc(C(=O)NS(=O)(=O)c4ccc(N[C@H](CCN5CCOCC5)CSc5ccccc5)c(S(=O)(=O)C(F)(F)F)c4)cc3)CC2)C1 [navitoclax]
CTG-3D luminescence at 96 h
Details	12.5 pM	0.00025 µM	0.005 µM	0.1 µM	1 µM	10 µM	100 µM	625 fM
[1]	1.62	1.82	1.33	1.72	1.52	1.84	0.144	1.8
[2]	4.52	4.44	4.56	4.28	3.8	1.42	0.000199	4.6

CTG-3D luminescence at 96 h
Details	12.5 pM	0.00025 µM	0.005 µM	0.1 µM	1 µM	10 µM	100 µM	625 fM
[1], days in culture: 74	2.04	2.51	2.16	2.38	2.09	2.86	0.137	1.84
[3], days in culture: 172	2.17	2.01	2.2	1.82	1.99	1.61	0.429	2.6
[3], days in culture: 191	2.56	1.7	2	1.59	1.87	1.01	0.399	1.61
[3], days in culture: 218	1.72	1.53	1.74	1.59	1.64	1.63	-0.117	1.97
[4], days in culture: 111	1.82	1.42	1.19	1.26	0.739	0.432	0.0151	1.83
[4], days in culture: 128	1.58	1.8	1.53	1.82	1.1	0.995	0.00828	1.58
[5], days in culture: 62	3.12	2.9	3.78	2.92	2.42	1.07	0.00133	3.47
[5], days in culture: 82	3.88	4.28	2.86	2.91	2.86	1.36	0.00885	3.44
[5], days in culture: 91	3.48	2.91	2.21	2.3	1.97	1.73	0.00844	3.14
[5], days in culture: 191	3.36	3.04	3.27	3.13	2.63	1.29	-0.105	3.4
[5], days in culture: 209	2.83	3.07	2.6	2.13	1.85	1.18	-0.00717	2.97
[5], days in culture: 227	5.11	5.2	4.65	4.75	3.73	3.27	0.0214	5.74
